Measured values: patent US6530985B1, “Water-based magenta ink composition and method of ink-jet recording” (Nippon Kayaku Kabushiki Kaisha, priority 1998, dated 2003)
In brackets after ≈: the same amount, converted by molar mass.

Test: Solubility of the dye in water
Assay type: physicochemical
Source text: Further, the dye component used in the Example, which has a solubility in water of 100 g/L, is excellent for ink-jet recording and can produce a high concentration of ink composition.

solubility in pure water (ion exchanged water) (25° C., listed as the dye component used in the Example): 100 mg/mL (≈ 131 mM)
solubility (pure water (ion exchanged water), 25 °C, water): ~100 mg/mL (≈ 131 mM)
SMILES: CCC(C)(C)c1ccc(Oc2cc(Nc3ccc(S(=O)(=O)O)cc3)c3c4c(c(C(=O)c5ccccc5)c(=O)[nH]c24)-c2ccccc2C3=O)c(S(=O)(=O)O)c1
